Test results: patent US10487089B2, “Imaging agents and methods of identifying same” (The Trustees of the University of Pennsylvania, priority 2014, dated 2019)
“Also recorded” adds a separate entry of the source. Read-outs that look alike come from different tables or passages of the source.

Assays:
[1] = Variable temperature 1H-NMR of E/Z interconversion; type: physicochemical; settings: DMF-d7, coalescence at 45° C.
Source text: A rapid and efficient synthesis of the desired photoactivatable probe starting with commercially available 2-cyanopyridine (FIG. 52). 2-cyanopyridine was elaborated to thioketone A using methods similar to those previously reported (Rarig et al., 2013, J. Am. Chem. Soc. 135: 9213-9219, which is incorporated by reference in its entirety for all purposes). Homocoupling of A, using copper powder in toluene under refluxing conditions, yielded 1,1′-diazaxanthilidene 10 as an interconverting mixture of E and Z isomers in 84% yield (FIG. 43). Methylation of 10 with dimethyl sulfate afforded the desired monomethylated product 11-E/11-Z in 96% yield. The overall yield of the probe from commercial starting materials after 6 steps was 24% (FIGS. 43 and 52). Single crystals of 10-E and 11-Z were obtained by slow evaporation from chloroform:methanol (1:1) and water, respectively. […] Variable temperature ^1H-NMR (J. Sandström, 1982, Dynamic NMR spectroscopy, Academic Press, London, New York) of 10-E/10-Z in deuterated N,N-dimethylformamide confirmed the dynamic interconversion of the E and Z isomers at room temperature.

[2] = Solubility (DMSO, water)
Source text: Water solubility would then be evaluated first by simply doing an aqueous extraction.

[3] = tested on: HeLa cells; assay: Confocal microscopy of stained live HeLa cells (subcellular localization, cell permeability); settings: for staining specificity / subcellular localization: confocal microscopy
Source text: (§3) Confocal microscopy was done on a Yokogawa spinning disk inverted microscope with a 100× lens. Each batch of stained cells was imaged by exciting with a 488 nm laser while observing at 503-545 nm (the green overlay images), exciting with a 561 nm laser while observing at 583-650 nm (the red overlay images), and by DIC (the grey images) (FIG. 8).
(§4) A 444 nm excitation was required to image with compounds 2 and 3 (FIG. 18).

[4] = tested on: mitochondria of HeLa cells; assay: Co-staining with mitotracker red, Pearson colocalization correlation; type: cell-based
Description: (§1) Pearson correlations were done after co-staining with mitotracker or lysotracker to evaluate specificity.
(§2) Confirmation of the supposed lysosome and mitochondria staining was achieved by doing co-staining experiments with Lysotacker Red™ and Mitortracker Red™, respectively. A Pearson colocalization correlation (PCC) of 0.75 was determined from a costaining experiments in which HeLa cells were incubated with E/Z-2 and Lysotracker. The imperfect correlation is due to higher specificity for a subset of vesicles stained by the Lysotracker.

[5] = tested on: HeLa cells; assay: Toxicity to HeLa cells on a 24 h timescale (live-cell imaging)
[6] = tested on: HeLa cells; assay: One-hundred-time-point timelapse microscopy (photostability / resistance to photobleaching); type: cell-based; settings: for decrease in intensity after 100 scans: 300 ms/scan, HeLa cells; for photostability compared with commercial dyes: vs Lysotracker Red / Mitotracker Red, 100 laser pulses of 300 ms; for loss of intensity over 100 scans: 100 pulses of 300 ms, maximum intensity of the image tracked
Description: One-hundred-time-point microscopy experiments were performed to evaluate photostability and/or resistance to photobleaching in comparison with the commercial dyes of lysotracker and mitotracker. […] For these experiments, each sample was pulsed 100 times for 300 ms and the maximum intensity of the image was tracked over time. […] Mitotracker was more robust than lysotracker, losing only 34% of its intensity over the 100 scans, while compound 3 lost only ˜13%. The most robust dye discovered thus far is monomethylated-3 (Me-3), which lost only ˜5% of its intensity over 100 scans.
This was determined via one-hundred-time-point timelapse microscopy experiments in which the […] intensity of the image was monitored over 100 laser pulses of 300 ms (FIG. 42).
To investigate photostability of 2 and 3, timelapse microscopy experiments were carried out.

[7] = tested on: HeLa cells
[8] = Photophysical properties (absorption, emission, extinction coefficient, quantum yield); type: physicochemical
Source text: n-Butyllithium in hexanes was purchased from Acros and titrated with diphenylacetic acid, which was recrystallized from toluene. All other reagents were purchased from Sigma Aldrich and used without further purification. Solvents were purchased from either Sigma Aldrich or Fisher Scientific. Anhydrous solvents were purchased from Fisher Scientific and dried by passing through an alumina column of a solvent purification system. Silica gel (230-400 mesh) used for column chromatography was purchased from Silicycle. Thin layer chromatography plates (250 μm thickness) were purchased from Sorbent Technologies. Revered-phase column chromatography was done using a RediSep Rf Gold C18 column on a Teledyne Isco CombiFlash Rf system. High-performance liquid chromatography (HPLC) was performed on a Jasco HPLC system using a Phenomenex column (Luna 5u C18(2) 100A; 250×4.60 mm, 5 micron). UV absorption spectra were obtained on a Jasco V-650 spectrophotometer using a 1 cm path length quartz cuvette. Fluorescence emission spectra were taken on a Horiba Jobin-Yvon FluoroLog using a 1 cm path length fluorescence quartz cuvette. ^1H-NMR and ^13C-NMR were recorded on either a Bruker DMX 500 (500 MHz) or a Bruker AVII 500 (500 MHz). High-resolution mass spectrometry was performed using a Waters LCT Premier XE Mass Spectrometer (model KE 332). […] was performed using a Bruker APEX2-DUO CCD X-ray Diffractometer. Photoreactions were carried out in a Rayonet Photochemical Reactor (model RPR-100). Quantum yield was determined by serial dilution method using coumarine 153 (in ethanol, Φ=0.38) and fluorescein (in NaOH 0.1 M, Φ=0.95) as standards (Yvon, A guide to recording Fluorescence Quantum Yields, http://www.horiba.com/fileadmin/uploads/Scientific/Documents/Fluorescence/quantumyie ldstrad.pdf, accessed Jul. 13, 2014; Brouwer, 2011, Pure Appl. Chem. 83: 2213-2228)

[9] = tested on: HeLa cells; remark: listed apart in the source
Source text: as §3, §4

[10] = tested on: lysosomes of HeLa cells; assay: Co-staining with lysotracker red, Pearson colocalization correlation; type: cell-based
Description: as §1, §2

[11] = in ethanol; cited from earlier work

For `c1ccc2c(c1)Oc1cccnc1/C2=C1\c2ccccc2Oc2cccnc21` (racemic) [10-E/10-Z, 1,1′-diazaxanthilidene], the “activation energy ΔG‡ of E/Z interconversion” value [1] was 15.7 kcal/mol.

With `c1ccc2c(c1)Oc1cnccc1/C2=C1\c2ccccc2Oc2cnccc21` (racemic) [E/Z-1, 3,3′-diazaxanthylidene] the “solubility in DMSO” value ([2]; DMSO) was “poor solubility”.

For `c1ccc2c(c1)oc1cncc3c4cccc5oc6cnccc6c(c54)c2c13` [Compound 2, chromeno[2,3,4-de]pyrido[3′,4′:2,3]chromeno[4,5-gh]isoquinoline;2,9-diaza-benzo[1,2,3-kl:6,5,4-k′l′]dixanthene], the cell permeability [3] was “cell permeable; also recorded: cell-permeable”, the “staining specificity / subcellular localization” value [3] was “staining mitochondria; also recorded: selectively stain mitochondria rather than the nucleus; also recorded: mitochondria-specific dyes; also recorded: localize primarily in the mitochondria; also recorded: stains mitochondria and additional structures” and the “Pearson correlation with mitotracker red” value [4] was 0.75. The “toxicity to HeLa cells” value [5] was “non-toxic”, the “decrease in intensity after 100 scans” value [6] was “only a slight decrease in intensity” and the “photostability compared with commercial dyes” value [6] was “superior”.

With `c1cc2oc3cnccc3c3c2c(c1)c1cccc2oc4cnccc4c3c21` [Compound 3, 9,14-diaza-benzo[1,2,3-kl:6,5,4-k′l′]dixanthene] the “Pearson correlation with mitotracker red” value [4] was 0.75, the “loss of intensity over 100 scans” value [6] was ~13% and the “decrease in intensity after 100 scans” value [6] was “only a slight decrease in intensity”. The “toxicity to HeLa cells” value [7] was “non-toxic”.

In the case of `C[n+]1cccc2oc3cccc4c5cccc6oc7cccnc7c(c65)c(c34)c21` [Compound 12], the Stokes shift [8] is reported as 108 nm, the “Abs λmax” value ([8]; in water) is reported as 504 nm and the “Em λmax” value ([8]; in water) is reported as 612 nm. The “extinction coefficient ε” value ([8]; solvent: water) was 11496 M⁻¹ cm⁻¹ and the “quantum yield Φ” value ([8]; solvent: water) was 0.100.

In the case of `C[n+]1ccc2c(c1)oc1cccc3c4c[n+](C)cc5oc6ccccc6c(c54)c2c13` [DiMe-2, 2,9-dimethylchromeno[2,3,4-de]pyrido[3′,4′:2,3]chromeno[4,5-gh]isoquinoline-2,9-diium], the cell permeability [3] is reported as “cell permeable”, the “staining specificity / subcellular localization” value [3] is reported as “specific for punctuate organelles; also recorded: lysosomal subcellular specificity” and the “toxicity to HeLa cells” value [5] is reported as “non-toxic”. The water solubility [2] was “water-solubility”.

In the case of `C[n+]1ccc2c(c1)oc1cccc3c4cccc5oc6c[n+](C)ccc6c(c54)c2c13` [DiMe-3, 9,14-dimethyl-9,14-diaza-benzo[1,2,3-kl:6,5,4-k′l′]dixanthene], the cell permeability [9] is reported as “cell permeable”, the “staining specificity / subcellular localization” value [3] is reported as “staining lysosomes; also recorded: specific for punctuate organelles; also recorded: lysosomal subcellular specificity” and the “toxicity to HeLa cells” value [7] is reported as “non-toxic”.

In the case of `C[n+]1ccc2c(c1)Oc1ccccc1/C2=C1/c2ccccc2Oc2c[n+](C)ccc21` [DiMe-E-1, (E)-3,3′-dimethyl-[5,5′-bichromeno[2,3-c]pyridinylidene]-3,3′-diium], the cell permeability [3] is reported as “cell permeable”, the “staining specificity / subcellular localization” value [3] is reported as “specific for punctuate organelles; also recorded: lysosomal subcellular specificity” and the “toxicity to HeLa cells” value [5] is reported as “non-toxic”. The “photostability compared with commercial dyes” value [6] was “superior” and the water solubility [2] was “water-solubility”.

In the case of `C[n+]1ccc2c(c1)Oc1ccccc1/C2=C1\c2ccccc2Oc2c[n+](C)ccc21` [DiMe-Z-1, (Z)-N, N′-dimethyl-3,3′-diazaxanthylidene], the cell permeability [3] is reported as “cell permeable”, the “staining specificity / subcellular localization” value [3] is reported as “specific for punctuate organelles; also recorded: lysosomal subcellular specificity” and the “toxicity to HeLa cells” value [5] is reported as “non-toxic”. For the same compound, the “photostability compared with commercial dyes” value [6] was “superior” and the water solubility [2] was “water-solubility”.

For `C[n+]1ccc2c(c1)Oc1ccccc1/C2=C1/c2ccccc2Oc2c[n+](C)ccc21` [E/Z-6], the “staining specificity / subcellular localization” value [3] was “stains lysosomes”.

With `C[n+]1ccc2c(c1)oc1cccc3c4cccc5oc6cnccc6c(c54)c2c13` [Me-3, 9-Me-9,14-diaza-benzo[1,2,3-kl:6,5,4-k′l′]dixanthene] the “Pearson correlation with lysotracker red” value [10] was 0.25 and the “loss of intensity over 100 scans” value [6] was ~5%.

In the case of `C[n+]1ccc2c(c1)Oc1ccccc1/C2=C1/c2ccccc2Oc2cnccc21` [Me-E-1, (E)-2-methyl-[5,5′-bichromeno[2,3-c]pyridinylidene]-2-ium], the “Pearson correlation with lysotracker red” value [10] is reported as 0.75, the “staining specificity / subcellular localization” value [3] is reported as “lysosome-specific stain” and the “staining specificity / subcellular localization” value ([3]; listed as Me-1) is reported as “lysosome-specific stain”. For the same compound, the “staining specificity / subcellular localization” value ([3]; listed as monomethylated 3,3′-DAXAZ) was “good lysosomal stain” and the “loss of intensity over 100 scans” value [6] was ~30%.

With `ClCc1ccc(C2=c3cc4c5c(c3Oc3c2cc2c6c3CCCN6CCC2)CCC[N+]=5CCC4)cc1.[Cl-]` [Mitotracker, reference compound] the “loss of intensity over 100 scans” value [6] was 34%.

For `O=c1cc(C(F)(F)F)c2cc3c4c(c2o1)CCCN4CCC3` [coumarine 153], the “quantum yield Φ of standard” value [11] is given as 0.38.

For `CN(C)CCNC(=O)CCc1ccc2n1[B-](F)(F)[N+]1=C(c3ccc[nH]3)C=CC1=C2` [lysotracker, reference compound], the “loss of intensity over 100 scans” value [6] was 80%.
